Measured values from patent US20230219904A1 (SYNGENTA CROP PROTECTION AG, priority 2020, published 2023).

Assays:
Format in all cases: in vivo
Conditions in all cases: evaluated after 13 days
[1] = tested on: Abutilon theophrasti (ABUTH); assay: Pre-emergence herbicidal glasshouse test (Table B1)
How it was run: (§1)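 Glasshouse pot test: compounds sprayed pre-emergence (day 1) or post-emergence (day 8) at 500 g/h unless stated. Evaluation at 13 days as percentage damage, reported on a five-point scale where 5 means 80-100%.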

[2] = tested on: Amaranthus retoflexus (AMARE); assay: as above
How it was run: as §1

[3] = tested on: Echinochloa crus-galh (ECHCG); assay: as above
How it was run: as §1

[4] = tested on: Ipomoea hederacea (IPOHE); assay: as above
How it was run: as §1

[5] = tested on: Setaria faberi (SETFA); assay: as above
How it was run: as §1

[6] = tested on: Abutilon theophrasti (ABUTH); assay: Post-emergence herbicidal glasshouse test (Table B1)
How it was run: as §1

[7] = tested on: Amaranthus retoflexus (AMARE); assay: as above
How it was run: as §1

[8] = tested on: Echinochloa crus-galh (ECHCG); assay: as above
How it was run: as §1

[9] = tested on: Ipomoea hederacea (IPOHE); assay: as above
How it was run: as §1

[10] = tested on: Setaria faberi (SETFA); assay: as above
How it was run: as §1

Row | Compound | PRE Application ABUTH, percentage damage on five-point scale ([1]; applied at 125 g/ha) | PRE Application AMARE, percentage damage on five-point scale ([2]; applied at 125 g/ha) | PRE Application ECHCG, percentage damage on five-point scale ([3]; applied at 125 g/ha) | PRE Application IPOHE, percentage damage on five-point scale ([4]; applied at 125 g/ha) | PRE Application SETFA, percentage damage on five-point scale ([5]; applied at 125 g/ha) | POST Application ABUTH, percentage damage on five-point scale ([6]; applied at 125 g/ha) | POST Application AMARE, percentage damage on five-point scale ([7]; applied at 125 g/ha) | POST Application ECHCG, percentage damage on five-point scale ([8]; applied at 125 g/ha) | POST Application IPOHE, percentage damage on five-point scale ([9]; applied at 125 g/ha) | POST Application SETFA, percentage damage on five-point scale ([10]; applied at 125 g/ha) | PRE Application ABUTH, percentage damage on five-point scale ([1]; applied at 500 g/h) | PRE Application AMARE, percentage damage on five-point scale ([2]; applied at 500 g/h) | PRE Application ECHCG, percentage damage on five-point scale ([3]; applied at 500 g/h) | PRE Application IPOHE, percentage damage on five-point scale ([4]; applied) | PRE Application SETFA, percentage damage on five-point scale ([5]; applied at 500 g/h) | POST Application ABUTH, percentage damage on five-point scale ([6]; applied at 500 g/h) | POST Application AMARE, percentage damage on five-point scale ([7]; applied at 500 g/h) | POST Application ECHCG, percentage damage on five-point scale ([8]; applied at 500 g/h) | POST Application IPOHE, percentage damage on five-point scale ([9]; applied at 500 g/h) | POST Application SETFA, percentage damage on five-point scale ([10]; applied at 500 g/h)
1 | CCOC(C)C(=O)Nc1c(OC(F)(F)F)ccc(C(=O)Nc2nnnn2C)c1Cl (stereo not shown) [Compound 1.065] | 5 (5=80-100%) | 5 (5=80-100%) | 5 (5=80-100%) | 5 (5=80-100%) | 5 (5=80-100%) | 5 (5=80-100%) | 5 (5=80-100%) | 5 (5=80-100%) | 5 (5=80-100%) | 5 (5=80-100%) |  |  |  |  |  |  |  |  |  | 
2 | CCC(=O)Nc1c(OC(F)(F)F)ccc(C(=O)Nc2nnnn2C)c1C(F)(F)F [Compound 1.082] | 5 (5=80-100%) | 5 (5=80-100%) | 5 (5=80-100%) | 3 (3=40-59%) | 4 (4=60-79%) | 4 (4=60-79%) | 4 (4=60-79%) | 3 (3=40-59%) | 4 (4=60-79%) | 4 (4=60-79%) |  |  |  |  |  |  |  |  |  | 
3 | Cn1nnnc1NC(=O)c1ccc(OC(F)F)c(NC(=O)c2ccc(C(F)(F)F)cn2)c1Cl [Compound 1.084] | 4 (4=60-79%) | 5 (5=80-100%) | 1 (1=0-19%) | 1 (1=0-19%) | 1 (1=0-19%) | 5 (5=80-100%) | 4 (4=60-79%) | 3 (3=40-59%) | 3 (3=40-59%) | 3 (3=40-59%) |  |  |  |  |  |  |  |  |  | 
4 | CC(=O)Nc1c(OC(F)F)ccc(C(=O)Nc2nnnn2C)c1Cl [Compound 1.090] | 5 (5=80-100%) | 5 (5=80-100%) | 5 (5=80-100%) | 4 (4=60-79%) | 4 (4=60-79%) | 4 (4=60-79%) | 4 (4=60-79%) | 4 (4=60-79%) | 4 (4=60-79%) | 4 (4=60-79%) |  |  |  |  |  |  |  |  |  | 
5 | Cc1cccnc1C(=O)Nc1c(OC(F)F)ccc(C(=O)Nc2nnnn2C)c1Cl [Compound 1.093] | 5 (5=80-100%) | 5 (5=80-100%) | 5 (5=80-100%) | 4 (4=60-79%) | 4 (4=60-79%) | 4 (4=60-79%) | 4 (4=60-79%) | 5 (5=80-100%) | 4 (4=60-79%) | 4 (4=60-79%) |  |  |  |  |  |  |  |  |  | 
6 | Cc1c(C(=O)Nc2c(OC(F)F)ccc(C(=O)Nc3nnnn3C)c2Cl)nn(C)c1C [Compound 1.098] | 4 (4=60-79%) | 3 (3=40-59%) | 1 (1=0-19%) | 4 (4=60-79%) | 4 (4=60-79%) | 4 (4=60-79%) | 4 (4=60-79%) | 4 (4=60-79%) | 4 (4=60-79%) | 4 (4=60-79%) |  |  |  |  |  |  |  |  |  | 
7 | Cn1nnnc1NC(=O)c1ccc(OC(F)F)c(NC(=O)c2ccc(F)cc2)c1Cl [Compound 1.099] | 4 (4=60-79%) | 5 (5=80-100%) | 1 (1=0-19%) | 3 (3=40-59%) | 1 (1=0-19%) | 4 (4=60-79%) | 4 (4=60-79%) | 4 (4=60-79%) | 4 (4=60-79%) | 3 (3=40-59%) |  |  |  |  |  |  |  |  |  | 
8 | Cn1nnnc1NC(=O)c1ccc(OC(F)F)c(NC(=O)c2ncccc2F)c1Cl [Compound 1.100] | 5 (5=80-100%) | 5 (5=80-100%) | 1 (1=0-19%) | 2 (2=20-39%) | 3 (3=40-59%) | 4 (4=60-79%) | 4 (4=60-79%) | 4 (4=60-79%) | 4 (4=60-79%) | 4 (4=60-79%) |  |  |  |  |  |  |  |  |  | 
9 | COc1ccc(C(=O)Nc2c(OC(F)F)ccc(C(=O)Nc3nnnn3C)c2Cl)cc1 [Compound 1.101] | 4 (4=60-79%) | 4 (4=60-79%) | 1 (1=0-19%) | 2 (2=20-39%) | 4 (4=60-79%) | 4 (4=60-79%) | 4 (4=60-79%) | 5 (5=80-100%) | 4 (4=60-79%) | 4 (4=60-79%) |  |  |  |  |  |  |  |  |  | 
10 | CCn1nnnc1NC(=O)c1ccc(OC(F)(F)C(F)F)c(NC(=O)C2CC2)c1Cl [Compound 1.102] |  |  |  |  |  |  |  |  |  |  | 4 (4=60-79%) | 5 (5=80-100%) | 5 (5=80-100%) | 1 (1=0-19%) | 4 (4=60-79%) | 5 (5=80-100%) | 5 (5=80-100%) | 5 (5=80-100%) | 5 (5=80-100%) | 5 (5=80-100%)
11 | CCC(=O)Nc1c(OC(F)(F)C(F)F)ccc(C(=O)Nc2nnnn2CC)c1Cl [Compound 1.103] |  |  |  |  |  |  |  |  |  |  | 4 (4=60-79%) | 5 (5=80-100%) | 3 (3=40-59%) | 1 (1=0-19%) | 1 (1=0-19%) | 5 (5=80-100%) | 5 (5=80-100%) | 5 (5=80-100%) | 5 (5=80-100%) | 5 (5=80-100%)
12 | CCC(CC)C(=O)Nc1c(OC(F)(F)F)ccc(C(=O)Nc2nnnn2C)c1Cl [Compound 1.104] |  |  |  |  |  |  |  |  |  |  | 4 (4=60-79%) | 5 (5=80-100%) | 5 (5=80-100%) | 2 (2=20-39%) | 3 (3=40-59%) | 5 (5=80-100%) | 5 (5=80-100%) | 5 (5=80-100%) | 5 (5=80-100%) | 5 (5=80-100%)
13 | CCC(CC)C(=O)Nc1c(OC(F)(F)F)ccc(C(=O)Nc2nnnn2CC)c1Cl [Compound 1.105] |  |  |  |  |  |  |  |  |  |  | 5 (5=80-100%) | 5 (5=80-100%) | 5 (5=80-100%) | 2 (2=20-39%) | 3 (3=40-59%) | 5 (5=80-100%) | 5 (5=80-100%) | 5 (5=80-100%) | 5 (5=80-100%) | 5 (5=80-100%)
